Experimental data from ChEMBL document CHEMBL1201862, “PubChem BioAssay data set” (2004).
Blank lines part the entries; values can stand above or below the compound they belong to. Activity calls are given as the source filed them.

Tests used:
[1] = biological target: T1, Bcl-2-like protein 10 (Homo sapiens, UniProt Q9HD36); assay: Biochemical TR3 FP assay of Bcl-B inhibitor potency, EC50 (AID 1243); format: functional
T1 sequence (Q9HD36 whole entry): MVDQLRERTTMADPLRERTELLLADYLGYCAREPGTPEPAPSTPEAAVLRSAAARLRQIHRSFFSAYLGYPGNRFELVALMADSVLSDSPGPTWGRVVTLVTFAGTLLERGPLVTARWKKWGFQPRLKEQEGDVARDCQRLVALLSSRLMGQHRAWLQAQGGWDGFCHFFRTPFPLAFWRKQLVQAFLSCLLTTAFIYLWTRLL

[2] = Counterscreen for IDE inhibitors: Luminescence-based cell-based high throughput dose response assay to identify compounds that are cytotoxic to HEK cells. [Related pubchem assays: 434962 (Primary screen (IDE inhibitors in singlicate)), 449730 (Counterscreen (Cytotoxicity in triplicate)), 435028 (Confirmation (IDE inhibitors in triplicate)) …; format: functional; details: HEK293
[3] = biological target: T2, DNA repair protein RAD52 homolog (Homo sapiens, UniProt P43351); format: functional, biochemical
T2 sequence (P43351 whole entry): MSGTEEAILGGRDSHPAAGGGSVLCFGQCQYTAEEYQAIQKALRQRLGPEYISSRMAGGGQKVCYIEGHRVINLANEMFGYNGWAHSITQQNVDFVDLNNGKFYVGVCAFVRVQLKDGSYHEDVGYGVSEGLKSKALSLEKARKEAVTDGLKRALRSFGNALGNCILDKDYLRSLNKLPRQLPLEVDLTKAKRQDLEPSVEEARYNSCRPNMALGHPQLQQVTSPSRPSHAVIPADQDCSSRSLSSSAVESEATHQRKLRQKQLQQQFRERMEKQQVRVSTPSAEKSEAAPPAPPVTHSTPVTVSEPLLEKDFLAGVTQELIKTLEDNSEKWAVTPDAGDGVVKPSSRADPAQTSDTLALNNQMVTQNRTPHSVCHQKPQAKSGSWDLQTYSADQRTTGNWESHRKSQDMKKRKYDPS

[4] = biological target: T3, Insulin-degrading enzyme (Homo sapiens, UniProt P14735); assay: Dose Response: Fluorescence polarization-based cell-based high throughput dose response assay for inhibitors of insulin-degrading enzyme (IDE). [Related pubchem assays: 434962 (Primary screen (IDE inhibitors in singlicate)), 449730 (Counterscreen (Cytotoxicity in triplicate)), 435028 (Confirmation (IDE inhibitors in triplicate)), 434984 (Summary …; format: functional
T3 sequence (P14735 whole entry): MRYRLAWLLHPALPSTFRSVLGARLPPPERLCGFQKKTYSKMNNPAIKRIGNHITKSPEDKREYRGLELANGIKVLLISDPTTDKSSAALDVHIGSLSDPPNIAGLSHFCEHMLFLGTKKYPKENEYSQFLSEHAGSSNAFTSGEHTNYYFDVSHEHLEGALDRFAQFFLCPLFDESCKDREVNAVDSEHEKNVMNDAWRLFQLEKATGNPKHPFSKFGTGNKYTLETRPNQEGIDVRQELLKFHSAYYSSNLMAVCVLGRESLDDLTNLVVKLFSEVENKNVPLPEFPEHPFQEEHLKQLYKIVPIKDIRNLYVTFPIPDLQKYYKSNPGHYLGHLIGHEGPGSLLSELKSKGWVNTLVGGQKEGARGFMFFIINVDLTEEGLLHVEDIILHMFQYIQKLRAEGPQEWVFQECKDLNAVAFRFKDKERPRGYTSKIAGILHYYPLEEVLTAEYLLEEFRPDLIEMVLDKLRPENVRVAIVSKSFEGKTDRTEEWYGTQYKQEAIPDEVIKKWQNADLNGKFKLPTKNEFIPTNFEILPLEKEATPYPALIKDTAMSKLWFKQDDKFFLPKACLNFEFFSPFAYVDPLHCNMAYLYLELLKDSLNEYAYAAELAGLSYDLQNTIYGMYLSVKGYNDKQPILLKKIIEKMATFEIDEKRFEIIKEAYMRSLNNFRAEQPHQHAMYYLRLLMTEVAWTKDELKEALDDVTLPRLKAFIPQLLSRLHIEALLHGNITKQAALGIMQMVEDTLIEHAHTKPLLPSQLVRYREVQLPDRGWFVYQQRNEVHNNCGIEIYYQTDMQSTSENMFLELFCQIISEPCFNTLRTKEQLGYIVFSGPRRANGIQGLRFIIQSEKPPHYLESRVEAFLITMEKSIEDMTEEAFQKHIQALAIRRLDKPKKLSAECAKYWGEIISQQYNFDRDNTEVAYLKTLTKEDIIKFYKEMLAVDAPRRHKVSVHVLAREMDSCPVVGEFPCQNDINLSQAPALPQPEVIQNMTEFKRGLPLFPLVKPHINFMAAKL

[5] = biological target: Neuropeptide Y receptor type 2 (Homo sapiens, UniProt P49146); format: functional, cell-based;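 note: HEK293 cells expressing the receptor and a CNG channel; stimulus was NPY near EC95 followed by isoproterenol to raise cAMP; antagonist potency measured as restoring cAMP signal that NPY suppresses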
[6] = biological target: Neuropeptide Y receptor type 1 (Homo sapiens, UniProt P25929); format: functional;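 note: HEK293 cells with a CNG channel challenged with NPY then isoproterenol; potency as antagonist that reverses NPY suppression of cAMP signal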
[7] = growth suppression of PTEN-null colon cells, dose response, cell-based, HCT116 PTEN knockout (AID 1047); format: functional;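 note: HCT116 colon tumor cells with PTEN knocked out; cells exposed to compound for 60 hours before readout; potency for loss of cell viability measured by luminescence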
[8] = biological target: T4, Microphthalmia-associated transcription factor (Homo sapiens, UniProt O75030); assay: TRPM1 promoter luciferase signal decrease, dose response, MITF inhibitor project, cell-based, SK-MEL-5, cherry-picked, set 3 (AID 493073); format: functional
T4 sequence (O75030 whole entry): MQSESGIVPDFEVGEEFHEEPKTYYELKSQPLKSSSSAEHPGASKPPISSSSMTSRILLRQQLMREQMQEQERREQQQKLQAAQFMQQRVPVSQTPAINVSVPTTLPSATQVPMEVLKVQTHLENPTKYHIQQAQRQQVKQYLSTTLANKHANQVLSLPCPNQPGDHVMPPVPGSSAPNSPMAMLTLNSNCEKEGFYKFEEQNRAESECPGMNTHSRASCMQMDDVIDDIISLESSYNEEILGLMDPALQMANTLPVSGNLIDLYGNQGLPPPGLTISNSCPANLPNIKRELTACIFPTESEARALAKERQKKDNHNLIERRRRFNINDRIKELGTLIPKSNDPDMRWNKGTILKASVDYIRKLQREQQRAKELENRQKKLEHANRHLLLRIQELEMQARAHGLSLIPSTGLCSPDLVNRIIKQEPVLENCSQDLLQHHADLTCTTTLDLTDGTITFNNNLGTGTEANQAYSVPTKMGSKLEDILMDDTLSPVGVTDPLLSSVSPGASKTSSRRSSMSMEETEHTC

[9] = inhibitors of PGC1a acetylation in cells, dose response, cell-based, cherry-picked samples (AID 720514); format: functional;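 note: potency may reflect raised or lowered acetylation signal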
[10] = biological target: Sphingosine 1-phosphate receptor 4 (Homo sapiens, UniProt O95977); assay: Fluorescence dose response cell-based high throughput screening assay for antagonists of the Sphingosine 1-Phosphate Receptor 4 (S1P4). [Related pubchem assays: 1524 (Confirmation in triplicates.), 1510 (Primary screen.)]; format: functional
[11] = biological target: Sphingosine 1-phosphate receptor 1 (Homo sapiens, UniProt P21453); format: functional;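 note: Tango beta-arrestin reporter U2OS cells stimulated with S1P near its EC80; inhibitor potency meaning antagonism of receptor activation by the natural agonist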
[12] = growth suppression of beta-catenin-knockout colon cells, dose response, cell-based, HCT116, human colon tumor (AID 1045); format: functional;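 note: HCT116 colon tumor cells with beta catenin knocked out; cells exposed to compound for 60 hours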
[13] = biological target: FAD-linked sulfhydryl oxidase ALR (Homo sapiens, UniProt P55789); assay: inhibitors of human ALR sulfhydryl oxidase, dose response, biochemical, H2O2 detection, luminescence, cherry-pick (AID 493248)
[14] = biological target: Genome polyprotein (dengue virus type 2, UniProt P29990); assay: Dengue-2 NS5 methyltransferase inhibitors, primary screen, biochemical, confirmation dose response (AID 588689); format: functional
[15] = biological target: Induced myeloid leukemia cell differentiation protein Mcl-1 (Homo sapiens, UniProt Q07820); format: functional
[16] = HIV-1 Env-mediated cell fusion inhibitors, dose response, CCR5-tropic Env (AID 2279); format: functional
[17] = test system: Vero; assay: Vero cell cytotoxicity, cytotoxicity control for flavivirus capping enzyme inhibitors (AID 588742); format: functional; details: Chlorocebus sabaeus
[18] = inhibitors of Bluetongue virus cytopathic effect, confirmation, arbovirus, BSR cells (AID 1250); format: functional;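 note: protection from viral cytopathic effect measured as cell viability by ATP luminescence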

Sphingosine 1-phosphate receptor 1, sequence (P21453 whole entry): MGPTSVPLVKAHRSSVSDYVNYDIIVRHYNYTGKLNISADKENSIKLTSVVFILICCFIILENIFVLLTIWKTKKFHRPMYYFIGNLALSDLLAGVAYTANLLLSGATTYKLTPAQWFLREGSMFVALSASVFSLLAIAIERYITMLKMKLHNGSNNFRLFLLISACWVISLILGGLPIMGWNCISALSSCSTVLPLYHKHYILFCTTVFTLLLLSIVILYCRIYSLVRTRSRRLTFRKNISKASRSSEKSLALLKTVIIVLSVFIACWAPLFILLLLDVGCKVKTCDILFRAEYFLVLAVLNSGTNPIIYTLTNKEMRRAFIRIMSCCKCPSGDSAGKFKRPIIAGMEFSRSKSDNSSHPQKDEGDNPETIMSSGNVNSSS
FAD-linked sulfhydryl oxidase ALR, sequence (P55789 whole entry): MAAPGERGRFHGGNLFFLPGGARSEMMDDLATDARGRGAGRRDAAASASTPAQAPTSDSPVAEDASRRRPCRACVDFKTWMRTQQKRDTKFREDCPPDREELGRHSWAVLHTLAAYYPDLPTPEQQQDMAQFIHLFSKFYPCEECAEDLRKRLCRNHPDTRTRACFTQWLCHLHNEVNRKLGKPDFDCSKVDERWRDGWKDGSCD
Genome polyprotein, sequence (P29990 2492-3391 limits assumed): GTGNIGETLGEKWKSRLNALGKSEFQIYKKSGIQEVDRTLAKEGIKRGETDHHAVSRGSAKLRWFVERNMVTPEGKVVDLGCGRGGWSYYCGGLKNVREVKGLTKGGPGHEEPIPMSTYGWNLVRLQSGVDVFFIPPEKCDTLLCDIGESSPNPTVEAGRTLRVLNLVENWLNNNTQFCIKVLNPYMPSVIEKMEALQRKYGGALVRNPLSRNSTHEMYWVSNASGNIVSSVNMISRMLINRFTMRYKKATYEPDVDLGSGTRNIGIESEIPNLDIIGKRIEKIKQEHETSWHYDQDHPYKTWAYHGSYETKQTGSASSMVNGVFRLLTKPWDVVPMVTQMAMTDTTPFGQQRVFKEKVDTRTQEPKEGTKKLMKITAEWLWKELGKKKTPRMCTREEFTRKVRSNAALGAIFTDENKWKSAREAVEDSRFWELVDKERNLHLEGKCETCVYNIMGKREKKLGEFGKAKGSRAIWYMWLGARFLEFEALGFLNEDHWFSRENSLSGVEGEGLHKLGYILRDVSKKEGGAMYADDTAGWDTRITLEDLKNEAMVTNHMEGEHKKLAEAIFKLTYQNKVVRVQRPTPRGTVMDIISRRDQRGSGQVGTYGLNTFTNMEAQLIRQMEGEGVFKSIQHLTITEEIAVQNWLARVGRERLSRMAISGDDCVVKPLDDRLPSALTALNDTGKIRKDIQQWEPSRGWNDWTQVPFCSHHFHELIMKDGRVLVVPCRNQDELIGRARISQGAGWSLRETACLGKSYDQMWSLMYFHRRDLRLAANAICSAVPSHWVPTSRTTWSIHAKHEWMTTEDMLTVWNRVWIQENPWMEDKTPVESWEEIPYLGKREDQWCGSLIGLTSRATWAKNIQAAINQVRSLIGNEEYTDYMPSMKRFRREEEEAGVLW
Sphingosine 1-phosphate receptor 4, sequence (O95977 whole entry): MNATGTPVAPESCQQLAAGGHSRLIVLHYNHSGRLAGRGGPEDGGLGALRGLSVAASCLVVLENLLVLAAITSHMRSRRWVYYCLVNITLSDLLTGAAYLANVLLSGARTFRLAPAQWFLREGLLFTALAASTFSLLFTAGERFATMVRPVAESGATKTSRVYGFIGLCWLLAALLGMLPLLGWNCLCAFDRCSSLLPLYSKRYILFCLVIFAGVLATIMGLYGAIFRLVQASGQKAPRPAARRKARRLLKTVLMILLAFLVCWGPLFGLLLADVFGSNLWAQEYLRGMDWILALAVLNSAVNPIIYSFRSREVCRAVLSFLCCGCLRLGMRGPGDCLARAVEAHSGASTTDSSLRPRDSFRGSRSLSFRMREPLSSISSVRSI
Neuropeptide Y receptor type 1, sequence (P25929 whole entry): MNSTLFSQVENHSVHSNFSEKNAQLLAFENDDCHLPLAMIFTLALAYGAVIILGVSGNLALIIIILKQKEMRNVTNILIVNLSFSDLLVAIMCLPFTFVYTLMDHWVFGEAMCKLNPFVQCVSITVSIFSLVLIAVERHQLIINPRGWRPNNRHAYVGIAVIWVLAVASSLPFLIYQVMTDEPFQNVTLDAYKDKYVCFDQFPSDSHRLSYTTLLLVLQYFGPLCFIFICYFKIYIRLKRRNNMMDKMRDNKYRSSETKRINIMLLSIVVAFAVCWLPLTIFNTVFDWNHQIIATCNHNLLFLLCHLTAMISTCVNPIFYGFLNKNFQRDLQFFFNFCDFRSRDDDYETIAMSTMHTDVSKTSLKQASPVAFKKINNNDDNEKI
Neuropeptide Y receptor type 2, sequence (P49146 whole entry): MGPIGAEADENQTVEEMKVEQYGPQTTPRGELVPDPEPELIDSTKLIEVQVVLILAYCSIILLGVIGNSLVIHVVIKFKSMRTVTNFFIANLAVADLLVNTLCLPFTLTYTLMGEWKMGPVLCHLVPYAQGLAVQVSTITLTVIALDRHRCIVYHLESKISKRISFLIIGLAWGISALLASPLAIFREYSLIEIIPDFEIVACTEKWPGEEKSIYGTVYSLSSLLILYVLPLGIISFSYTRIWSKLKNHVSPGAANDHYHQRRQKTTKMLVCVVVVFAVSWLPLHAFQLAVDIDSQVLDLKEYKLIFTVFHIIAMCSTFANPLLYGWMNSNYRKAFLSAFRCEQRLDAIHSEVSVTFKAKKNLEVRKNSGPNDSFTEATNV
Induced myeloid leukemia cell differentiation protein Mcl-1, sequence (Q07820 whole entry, the tested form may be a part): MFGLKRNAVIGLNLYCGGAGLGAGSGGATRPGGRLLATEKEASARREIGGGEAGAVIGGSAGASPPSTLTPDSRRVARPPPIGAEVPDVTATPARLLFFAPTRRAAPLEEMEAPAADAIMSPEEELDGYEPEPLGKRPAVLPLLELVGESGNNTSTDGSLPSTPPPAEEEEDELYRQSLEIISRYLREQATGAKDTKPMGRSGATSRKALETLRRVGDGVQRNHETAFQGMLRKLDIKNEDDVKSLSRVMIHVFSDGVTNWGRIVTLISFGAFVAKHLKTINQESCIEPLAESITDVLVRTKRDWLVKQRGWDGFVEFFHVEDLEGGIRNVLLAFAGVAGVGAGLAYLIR

- EC50 [1]: 5.38 µM (active)
SMILES: Cc1cc(C)nc(/N=C(\N)Nc2ccc(N)cc2)n1

SMILES: CCOC(=O)c1c(C)n(Cc2ccccc2)c2ccc(OCC(O)CNC(C)(C)C)cc12 (stereo not drawn)
- IC50 [2]: 14.5 µM (not active)
- AC50 [3]: 22 µM (active)
- IC50 [4]: > 55.9 µM (not active)

- IC50 [5]: 6.17 µM (active)
- IC50 [6]: < 12 µM (not active)
SMILES: CCN(CC)CC#CCC(C)(c1ccccc1)c1ccccc1

SMILES: Cc1ccc(C)c(C(=O)Cn2ncc(Cl)c(Cl)c2=O)c1
- EC50 [7]: 3.56 µM (active)
- AC50 [8]: 14.5 µM (active)
- AC50 [9]: 8.4 µM (active)
- IC50 [10]: 2.99 µM (active)
- IC50 [11]: 12.1 µM (not active)
- EC50 [12]: 2.35 µM (active)

SMILES: CN(C)S(=O)(=O)c1cccc(-c2nn(-c3ccccc3)cc2/C=C2\SC(=S)N(CC(=O)O)C2=O)c1
- AC50 [13]: 15.5 µM (active)
- IC50 [14]: 79.5 µM (active)
- IC50 [15]: 4.8 µM (active)
- IC50 [16]: 48.8 µM (active)
- CC50 [17]: > 40 µM (active)

- IC50 [18]: 23.2 µM (active)
SMILES: CCc1cc(C(=O)O)c(NC(=O)C(c2ccccc2)c2ccccc2)s1
